In ChEMBL document CHEMBL3045453, “Novel malyngamide structural analogs: synthesis and biological evaluation” (Med Chem Res, 2013):

Tests used:
Assay type in all cases: functional, cell-based
PC-3 = experiment: Cytotoxicity against Homo sapiens (human) PC3 cells assessed as growth inhibition after 48 hr by trypan blue exclusion assay; conditions: PC-3, 48 h
HeLa = experiment: Cytotoxicity against Homo sapiens (human) HeLa cells assessed as growth inhibition after 48 hr by trypan blue exclusion assay
HOP-62 = experiment: Cytotoxicity against Homo sapiens (human) HOP62 cells assessed as growth inhibition after 48 hr by trypan blue exclusion assay; conditions: HOP-62, 48 h
SK-N-SH = experiment: Cytotoxicity against Homo sapiens (human) SK-N-SH cells assessed as growth inhibition after 48 hr by trypan blue exclusion assay
[1] = Cytotoxicity against Homo sapiens (human) 502713 cells assessed as growth inhibition after 48 hr by trypan blue exclusion assay; conditions: Homo sapiens, 502713, 48 h
SF-295 = experiment: Cytotoxicity against Homo sapiens (human) SF295 cells assessed as growth inhibition after 48 hr by trypan blue exclusion assay; conditions: SF-295, 48 h
SW-620 = experiment: Cytotoxicity against Homo sapiens (human) SW620 cells assessed as growth inhibition after 48 hr by trypan blue exclusion assay; conditions: SW-620, 48 h
IMR-32 = experiment: Cytotoxicity against Homo sapiens (human) IMR32 cells assessed as growth inhibition after 48 hr by trypan blue exclusion assay; conditions: IMR-32, 48 h

| Compound | IC50 (PC-3) [µM] | IC50 (HeLa) [µM] | IC50 (HOP-62) [µM] | IC50 (SK-N-SH) [µM] | IC50 [1] [µM] | IC50 (SF-295) [µM] | IC50 (SW-620) [µM] | IC50 (IMR-32) [µM] |
| --- | --- | --- | --- | --- | --- | --- | --- | --- |
| CCCCCCC[C@H](O)C/C=C/CCC(=O)NCC(C)C | > 100 | > 100 | > 100 | > 100 | > 100 | > 100 | > 100 | > 100 |
| CCCCCCC[C@H](C/C=C/CCC(=O)NCCc1ccccc1)OC [PHENETHYL(7R,4E)-METHOXYTETRADECENAMIDE] | > 100 | > 100 | > 100 | 95.8 | > 100 | > 100 | > 100 | > 100 |
| CCCCCCC[C@@H](C/C=C/CCC(=O)NCc1ccc(OC)cc1)OC | > 100 | > 100 | > 100 | > 100 | > 100 | > 100 | > 100 | > 100 |
| CCCCCCC[C@@H](C/C=C/CCC(=O)Nc1c(OC)cc(Cl)cc1OC)OC | > 100 | > 100 | > 100 | > 100 | 64.1 | > 100 | > 100 | > 100 |
| CCCCCCC[C@@H](C/C=C/CCC(=O)NCc1ccccc1)OC | > 100 | > 100 | > 100 | > 100 | > 100 | > 100 | > 100 | > 100 |
| CCCCCCC[C@@H](C/C=C/CCC(=O)N1CCCC1)OC | > 100 | > 100 | > 100 | > 100 | > 100 | > 100 | > 100 | > 100 |
| CCCCCCC[C@@H](C/C=C/CCC(=O)NCCc1ccccc1)OC [HERMITAMIDE A] | > 100 | > 100 | > 100 | > 100 | > 100 | > 100 | > 100 | > 100 |
| CCCCCCC[C@H](O)C/C=C/CCC(=O)N1CCCC1 | > 100 | > 100 | > 100 | 120 | > 100 | > 100 | > 100 | > 100 |
| CCCCCCC[C@H](C/C=C/CCC(=O)N1CCCCC1)OC | > 100 | > 100 | > 100 | 118 | > 100 | > 100 | > 100 | > 100 |
| CCCCCCC[C@@H](C/C=C/CCC(=O)Nc1ccc(Cl)cc1)OC | > 100 | > 100 | > 100 | 72.9 | > 100 | > 100 | > 100 | > 100 |
| CCCCCCC[C@H](O)C/C=C/CCC(=O)N1CCCCC1 | > 100 | > 100 | > 100 | 100 | > 100 | > 100 | > 100 | > 100 |
| CCCCCCC[C@H](C/C=C/CCC(=O)N1CCCC1)OC | > 100 | > 100 | > 100 | > 100 | > 100 | > 100 | > 100 | > 100 |
| CCCCCCC[C@@H](C/C=C/CCC(=O)NCc1ccc(C(F)(F)F)cc1)OC | > 100 | > 100 | > 100 | 62.9 | 29.8 | > 100 | > 100 | > 100 |
| CCCCCCC[C@H](O)C/C=C/CCC(=O)NCCc1ccccc1 | > 100 | > 100 | > 100 | 164 | > 100 | > 100 | > 100 | > 100 |
| CCCCCCC[C@@H](C/C=C/CCC(=O)NCC(C)C)OC | > 100 | > 100 | > 100 | > 100 | > 100 | > 100 | > 100 | > 100 |
| CCCCCCC[C@@H](C/C=C/CCC(=O)N1CCCCC1)OC | > 100 | > 100 | > 100 | > 100 | > 100 | > 100 | > 100 | > 100 |
| CCCCCCC[C@@H](C/C=C/CCC(=O)NCc1ccc(F)cc1)OC | > 100 | > 100 | > 100 | > 100 | > 100 | > 100 | > 100 | > 100 |
| CCCCCCC[C@@H](C/C=C/CCC(=O)Nc1ccc(Br)cc1)OC | > 100 | > 100 | 174 | 65.7 | > 100 | > 100 | > 100 | > 100 |
| CCCCCCC[C@H](C/C=C/CCC(=O)NCC(C)C)OC | > 100 | > 100 | > 100 | > 100 | > 100 | > 100 | > 100 | > 100 |
